# Results as given in patent US20130310344A1, “N-ACYLSULFONAMIDE APOPTOSIS PROMOTERS” (ASTRAZENECA AB, priority 2010, published 2013).
# Structures can show the parent of a compound that is named as a salt.
# Key:
# [1] = target: T1, Bcl-XL (Homo sapiens, UniProt Q07817); assay: Bcl-XL FP assay (competitive fluorescence polarization binding assay, FITC-Bim BH-3 peptide tracer); settings: C-terminal 6×HIS tagged Bcl-XL (aa 1-209), 0.8 nM; 2 nM FITC-Bim peptide tracer
# T1 construct: a C-terminal 6×HIS tagged Bcl-XL (aa 1-209); 6xHis (C)
# T1 sequence (Q07817 1-209): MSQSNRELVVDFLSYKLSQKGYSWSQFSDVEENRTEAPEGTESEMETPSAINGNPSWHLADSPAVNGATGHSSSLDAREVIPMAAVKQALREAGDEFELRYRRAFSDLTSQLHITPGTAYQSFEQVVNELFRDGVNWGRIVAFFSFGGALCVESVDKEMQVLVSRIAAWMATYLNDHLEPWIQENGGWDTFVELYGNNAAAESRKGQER
# From the text: (§1) Bcl-xL and Bcl-2 FP binding affinity of compound(s) of Formulae (I), (I-a), (I-b), (I-c), (I-d) and/or (I-e) may be determined using a variety of known methods. One such assay is a sensitive and quantitative in vitro binding assay using fluorescence polarization (“FP”) described by Wang, J.-L.; Zhang, Z-J.; Choksi, S.; Sjam. S.; Lu, Z.; Croce, C. M.; Alnemri, E. S.; Komgold, R.; Huang, Z. Cell permeable Bcl-2 binding peptides: a chemical approach to apoptosis induction in tumor cells. Cancer Res. 2000, 60, 1498-1502).
# (§2) Additionally, the binding affinity of compound(s) of Formulae (I), (I-a), (I-b), (I-c), (I-d) and/or (I-e) to Bcl-2 protein in vitro was determined by a competitive binding assay based on fluorescence polarization. For example, fluorescence polarization (“FP”) assays may be developed using a c-terminal 6×HIS tagged Bcl-2 (aa 1-204) and a C-terminal 6×HIS tagged Bcl-XL (aa 1-209). […] Dilutions of either Bcl-2 (1.3 nM) or Bcl-XL (0.8 nM) may be added to serial dilutions of antagonist and incubated for one hour prior to the addition of 2 nM of fluorescent peptide tracer (Anaspec, Fremont, Calif.) in the assay buffer. Final assay buffer conditions may be 20 mM HEPES, pH 7.5, 1 mM DTT, 0.005% Tween-20 and 50 mM NaCl. Samples may be read after 20-minute incubation. Fluorescence polarization values may be plotted as a function of the antagonist concentration.
# [2] = target: T2, Bcl-2 (Homo sapiens, UniProt P10415); assay: Bcl-2 FP assay (competitive fluorescence polarization binding assay, FITC-Bim BH-3 peptide tracer); settings: c-terminal 6×HIS tagged Bcl-2 (aa 1-204), 1.3 nM; 2 nM FITC-Bim peptide tracer
# T2 construct: a c-terminal 6×HIS tagged Bcl-2 (aa 1-204); 6xHis (C)
# T2 sequence (P10415 1-204): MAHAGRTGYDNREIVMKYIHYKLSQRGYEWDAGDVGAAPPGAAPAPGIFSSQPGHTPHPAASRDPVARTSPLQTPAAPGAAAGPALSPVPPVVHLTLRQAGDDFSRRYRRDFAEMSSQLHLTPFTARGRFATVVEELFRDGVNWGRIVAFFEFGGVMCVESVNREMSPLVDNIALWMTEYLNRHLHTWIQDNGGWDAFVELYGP
# From the text: as §1, §2
Compound,IC50 [1] [nM],IC50 [2] [nM]
"O=C(NS(=O)(=O)c1ccc(N[C@H](CCN2CCOCC2)CSc2ccccc2)c([N+](=O)[O-])c1)c1ccc(N2CCC([C@@H](O)c3ccccc3-c3ccc(Cl)cc3)CC2)cc1 [Example 16, 4-(4-((R)-(4′-chlorobiphenyl-2-yl)(hydroxy)methyl)piperidin-1-yl)-N-(4-((R)-4-morpholino-1-(phenylthio)butan-2-ylamino)-3-nitrophenylsulfonyl)benzamide]",1,0.8
"4-(4-((R)-(4′-chlorobiphenyl-2-yl)(cyano)methyl)piperidin-1-yl)-N-(4-((R)-4-morpholino-1-(phenylthio)butan-2-ylamino)-3-(trifluoromethylsulfonyl)phenylsulfonyl)benzamide and 4-(4-((S)-(4′-chlorobiphenyl-2-yl)(cyano)methyl)piperidin-1-yl)-N-(4-((R)-4-morpholino-1-(phenylthio)butan-2-ylamino)-3-(trifluoromethylsulfonyl)phenylsulfonyl)benzamide, mixture of diastereomers [Example 17]",1,–
"O=C(NS(=O)(=O)c1ccc(N[C@H](CCN(CCO)CCO)CSc2ccccc2)c(S(=O)(=O)C(F)(F)F)c1)c1ccc(N2CCC([C@@H](O)c3ccccc3-c3ccc(Cl)cc3)CC2)cc1 [Example 5, N-(4-((R)-4-(bis(2-hydroxyethyl)amino)-1-(phenylthio)butan-2-ylamino)-3-(trifluoromethylsulfonyl)phenylsulfonyl)-4-(4-((R)-(4′-chlorobiphenyl-2-yl)(hydroxy)methyl)piperidin-1-yl)benzamide, formic acid salt]",1,0.8
"COP(=O)(O)O[C@@H](c1ccccc1-c1ccc(Cl)cc1)C1CCN(c2ccc(C(=O)NS(=O)(=O)c3ccc(N[C@H](CCN4CCOCC4)CSc4ccccc4)c(S(=O)(=O)C(F)(F)F)c3)cc2)CC1 [Example 30, (R)-(4′-chlorobiphenyl-2-yl)(1-(4-(4-((R)-4-morpholino-1-(phenylthio)butan-2-ylamino)-3-(trifluoromethylsulfonyl)phenylsulfonylcarbamoyl)phenyl)piperidin-4-yl)methyl methyl hydrogen phosphate, hydrochloride salt]",1,1
"O=C(NS(=O)(=O)c1ccc(N[C@H](CCN2CCOC[C@H]2CO)CSc2ccccc2)c(S(=O)(=O)C(F)(F)F)c1)c1ccc(N2CCC([C@@H](O)c3ccccc3-c3ccc(Cl)cc3)CC2)cc1 [Example 24, 4-(4-((R)-(4′-chlorobiphenyl-2-yl)(hydroxy)methyl)piperidin-1-yl)-N-(4-((R)-4-((R)-3-(hydroxymethyl)morpholino)-1-(phenylthio)butan-2-ylamino)-3-(trifluoromethylsulfonyl)phenylsulfonyl)benzamide, formic acid salt]",–,0.4
"N[C@@H](c1ccccc1-c1ccc(Cl)cc1)C1CCN(c2ccc(C(=O)NS(=O)(=O)c3ccc(N[C@H](CCN4CCOCC4)CSc4ccccc4)c(S(=O)(=O)C(F)(F)F)c3)cc2)CC1 [Example 33, 4-(4-((R)-amino(4′-chlorobiphenyl-2-yl)methyl)piperidin-1-yl)-N-(4-((R)-4-morpholino-1-(phenylthio)butan-2-ylamino)-3-(trifluoromethylsulfonyl)phenylsulfonyl)benzamide, formic acid salt]",33,30
"O=C(NS(=O)(=O)c1ccc(N[C@H](CCN2CCO[C@H](CO)C2)CSc2ccccc2)c(S(=O)(=O)C(F)(F)F)c1)c1ccc(N2CCC([C@@H](O)c3ccccc3-c3ccc(Cl)cc3)CC2)cc1 [Example 23, 4-(4-((R)-(4′-chlorobiphenyl-2-yl)(hydroxy)methyl)piperidin-1-yl)-N-(4-((R)-4-((S)-2-(hydroxymethyl)morpholino)-1-(phenylthio)butan-2-ylamino)-3-(trifluoromethylsulfonyl)phenylsulfonyl)benzamide, formic acid salt]",1,1
"CC(C)(C)OP(=O)(O)OCO[C@@H](c1ccccc1-c1ccc(Cl)cc1)C1CCN(c2ccc(C(=O)NS(=O)(=O)c3ccc(N[C@H](CCN4CCOCC4)CSc4ccccc4)c(S(=O)(=O)C(F)(F)F)c3)cc2)CC1 [Example 28, tert-Butyl((R)-(4′-chlorobiphenyl-2-yl)(1-(4-(4-((R)-4-morpholino-1-(phenylthio)butan-2-ylamino)-3-(trifluoromethylsulfonyl)phenylsulfonylcarbamoyl)-phenyl)piperidin-4-yl)methoxy)methyl hydrogen phosphate]",2,4
"O=C(NS(=O)(=O)c1ccc(N[C@H](CCN2CCOC[C@@H]2CO)CSc2ccccc2)c(S(=O)(=O)C(F)(F)F)c1)c1ccc(N2CCC([C@@H](O)c3ccccc3-c3ccc(Cl)cc3)CC2)cc1 [Example 25, 4-(4-((R)-(4′-chlorobiphenyl-2-yl)(hydroxy)methyl)piperidin-1-yl)-N-(4-((R)-4-((S)-3-(hydroxymethyl)morpholino)-1-(phenylthio)butan-2-ylamino)-3-(trifluoromethylsulfonyl)phenylsulfonyl)benzamide, hydrochloride salt]",–,0.4

# More lines, now with the values ahead:
IC50 [1] [nM],IC50 [2] [nM],Compound
0.5,0.3,"CCN(CC)C[C@@H]1COCCN1CC[C@H](CSc1ccccc1)Nc1ccc(S(=O)(=O)NC(=O)c2ccc(N3CCC([C@@H](O)c4ccccc4-c4ccc(Cl)cc4)CC3)cc2)cc1S(=O)(=O)C(F)(F)F [Example 21, 4-(4-((R)-(4′-chlorobiphenyl-2-yl)(hydroxy)methyl)piperidin-1-yl)-N-(4-((R)-4-((R)-3-((diethylamino)methyl)morpholino)-1-(phenylthio)butan-2-ylamino)-3-(trifluoromethylsulfonyl)phenylsulfonyl)benzamide]"
1,< 0.3,"CN(CCO)CC[C@H](CSc1ccccc1)Nc1ccc(S(=O)(=O)NC(=O)c2ccc(N3CCC([C@@H](O)c4ccccc4-c4ccc(Cl)cc4)CC3)cc2)cc1S(=O)(=O)C(F)(F)F [Example 3, 4-(4-((R)-(4′-chlorobiphenyl-2-yl)(hydroxy)methyl)piperidin-1-yl)-N-(4-((R)-4-((2-hydroxyethyl)(methyl)amino)-1-(phenylthio)butan-2-ylamino)-3-(trifluoromethylsulfonyl)phenylsulfonyl)benzamide]"
1,< 1,"O=C(NS(=O)(=O)c1ccc(N[C@H](CCN2CCN(CCO)CC2)CSc2ccccc2)c(S(=O)(=O)C(F)(F)F)c1)c1ccc(N2CCC([C@@H](O)c3ccccc3-c3ccc(Cl)cc3)CC2)cc1 [Example 1, 4-(4-((R)-(4′-chlorobiphenyl-2-yl)(hydroxy)methyl)piperidin-1-yl)-N-(4-((R)-4-(4-(2-hydroxyethyl)piperazin-1-yl)-1-(phenylthio)butan-2-ylamino)-3-(trifluoromethylsulfonyl)phenylsulfonyl)benzamide, formic acid salt]"
1,3,"O=C(NS(=O)(=O)c1ccc(N[C@H](CCN2CCOCC2)CSc2ccccc2)c(S(=O)(=O)C(F)(F)F)c1)c1ccc(N2CCC([C@@H](O)c3ccccc3-c3ccc(Cl)cc3)CC2)cc1 [Example 15, 4-(4-((R)-(4′-chlorobiphenyl-2-yl)(hydroxy)methyl)piperidin-1-yl)-N-(4-((R)-4-morpholino-1-(phenylthio)butan-2-ylamino)-3-(trifluoromethylsulfonyl)phenylsulfonyl)benzamide]"
19,27,"CNCC(=O)N[C@@H](c1ccccc1-c1ccc(Cl)cc1)C1CCN(c2ccc(C(=O)NS(=O)(=O)c3ccc(N[C@H](CCN4CCOCC4)CSc4ccccc4)c(S(=O)(=O)C(F)(F)F)c3)cc2)CC1 [Example 34, 4-(4-((R)-(4′-chlorobiphenyl-2-yl)(2-(methylamino)acetamido)methyl)piperidin-1-yl)-N-(4-((R)-4-morpholino-1-(phenylthio)butan-2-ylamino)-3-(trifluoromethylsulfonyl)phenylsulfonyl)benzamide, hydrochloride salt]"
1,0.9,"CN(CCOP(=O)(O)O)CC[C@H](CSc1ccccc1)Nc1ccc(S(=O)(=O)NC(=O)c2ccc(N3CCC([C@@H](O)c4ccccc4-c4ccc(Cl)cc4)CC3)cc2)cc1S(=O)(=O)C(F)(F)F [Example 9, 2-(((R)-3-(4-(N-(4-(4-((R)-(4′-chlorobiphenyl-2-yl)(hydroxy)methyl)piperidin-1-yl)benzoyl)sulfamoyl)-2-(trifluoromethylsulfonyl)phenylamino)-4-(phenylthio)butyl)(methyl)amino)ethyl dihydrogen phosphate, hydrochloride salt]"
